The test system of test [1] is lin− primitive hematopoietic cells. Nature of the test: Apoptosis by AnnexinV / 7-AAD flow cytometry of cells cultured with OPN. The test is classed as cell-based, mouse. Conditions: cultured with OPN 1 μg/ml versus without OPN. The method, then: (§1) FIGS. 5A-5C are graphs showing that soluble OPN induces apoptosis of primitive hematopoietic cells. Sca1^+lin^− cells were isolated from the bone marrow of C57B1/6 mice and cultured in IMDM containing 10% fetal calf serum (FCS), stem cell factor (SCF), Flt-3, thrombopoietin (TPO) and IL-3 with or without OPN [1 μg/ml]. After 7 days the cells were counted and analyzed in functional hematopoietic assays.
The fraction of apoptotic cells was next analyzed by staining with lineage markers, 7-AAD and AnnexinV. […] OPN exerted a pro-apoptotic effect on primitive cells potentially constraining the size of the stem cell pool.
Flow cytometry was used to quantify the hematopoietic cells at different stages in the peripheral blood and the bone marrow of the transplanted animals. […] To quantify the enriched stem cell phenotype (Sca1^+lin^−) in primary animals and in transplanted animals bone marrow cells were stained with biotinylated lineage antibodies (CD3, Ter119 (Pharmingen, San Diego, Calif.), CD4, CD8, B220, IgM, Gr-1 and Mac1 (Caltag, Burlingame, Calif.)), c-kit-APC (Pharmingen, San Diego, Calif.) and Sca1-PE (Caltag, Burlingame, Calif.). The cells were analyzed after labeling with the secondary antibody Streptavidin-PerCP (Becton Dickinson, Franklin Lakes, N.J.). […]
For orientation: A flow cytometer gives signals particle by particle.

Test [2] has as its system Sca1+lin− bone marrow cells. Nature of the test: Limiting dilution LTC-IC assay after 7 day culture with OPN. The test is classed as cell-based, mouse. Particulars: after 7 days culture with OPN 1 μg/ml; without OPN 35.9±5.14; P=0.002, n=5. On the procedure: as §1
Exogenous OPN was used to assess its potential role in regulating primitive cells directly rather than through the altered expression of other regulators within the niche. Initial experiments cultured Sca1^+lin^− bone marrow cells of C57B1/6 mice in medium containing stem cell factor (SCF), Flt-3, thrombopoietin (TPO), and IL-3 with and without OPN for 7 days. The cells were subsequently counted and analyzed in functional in vitro progenitor and stem cell assays. […]
To quantify the stem cells in the bone marrow and spleen cell suspension, the CAFC assay^36 was adapted with minor modifications as described in our previous publication^37. To measure long term culture-initiating cells (LTC-IC) the semisolid, cytokine containing methylcellulose medium for CFC was overlaid into the wells at week 5 and the colonies were counted at day ten. […]

Test [3] has as its system Sca1+lin− bone marrow cells. Nature of the test: Culture of Sca1+lin− bone marrow cells with or without soluble OPN for 7 days, cells counted. The class given is cell-based, mouse. Conditions: Sca1+lin− cells of C57B1/6 mice, 7 days in SCF, Flt-3, TPO, IL-3, OPN 1 μg/ml, versus without OPN. The method, then: as §1
(§2) Exogenous OPN was used to assess its potential role in regulating primitive cells directly rather than through the altered expression of other regulators within the niche. Initial experiments cultured Sca1^+lin^− bone marrow cells of C57B1/6 mice in medium containing stem cell factor (SCF), Flt-3, thrombopoietin (TPO), and IL-3 with and without OPN for 7 days. The cells were subsequently counted and analyzed in functional in vitro progenitor and stem cell assays. Addition of soluble OPN led to a lower total cell number with an unperturbed absolute number of CFCs representing hematopoietic progenitor cell activity (n=5) (FIG. 5A).
(§3) Mouse bone marrow was obtained from 8-12 week old 129/C57BL/6 OPN^+/+ and 129/C57BL/6 OPN^−/− mice, sacrificed with CO2. Bone marrow cell and spleen cell suspensions were flushed from femurs and tibias or take from spleen, filtered through 100 μm-mesh nylon cloth (Sefar America Inc., Kansas City, Mo.), and stored on ice until use. […]

The next test relates to Jagged1. Nature of the test: Jagged1 expression by RT-PCR in wild-type bone marrow stroma exposed to OPN ex vivo. The test is classed as cell-based, mouse. Conditions: OPN 1 ug/ml, four hours ex vivo. From the text:
FIGS. 4A-4F are graphs showing that OPN^−/− bone marrow has unaltered cell cycle profiles associated with increased stromal Jagged1 and Angiopoietin-1 expression and reduced primitive cell apoptosis. FIG. 4A is a graph showing that bone marrow Sca1^+ c-kit^+lin^− cells that show bright staining for Hoechst33342 are cells in the G2/M phase of the cell cycle (n=3 pairs). […] Data are the result of two independent experiments with four mice per group in each experiment. […] Data were normalized to an intrasample GAPDH standard and the results of the OPN^−/− versus OPN^+/+ cells were compared by ratio. […] Data are normalized against GAPDH expression measured by RT PCR. […] AnnexinV-positive/7-AAD-negative apoptotic Sca1^+c-kit^+lin^− cells are shown (n=4 pairs). […] Analyses were performed on the lin^− fraction twelve weeks after transplantation (n=4).
Stem cell expansion may occur without increased proliferation in the context of Notch1 activation where stem cell self renewal is favored over differentiation^23,24. Activation of Notch1 on primitive hematopoietic cells in vivo was previously shown to result in an increase in primitive cells, but reduced progenitor cells similar phenotype to that reported herein^23. […]
The expression of Jagged1, Angiopoietin1 and N-cadherin in bone marrow stroma cells was measured by RT-PCR. […]

The subject of test [4] is Sca1+lin− bone marrow cells. Nature of the test: Colony-forming cell (CFC) assay after 7 day culture with OPN. The class given is cell-based, mouse. Conditions: after 7 days culture with OPN 1 μg/ml versus without OPN, n=5. On the procedure: as §1, §2, §3
The test system of a further test is Sca1+c-kit+lin− cells. Nature of the test: In vivo PTH treatment, Sca1+c-kit+lin− cells in bone marrow by flow cytometry. On the set-up: species or system mouse. Particulars: for magnitude of Sca1+c-kit+lin− increase induced by PTH, absolute number / magnitude of Sca1+c-kit+lin− increase induced by PTH, proportion: four weeks of PTH. The method, then:
FIG. 6 is a graph showing that OPN deficiency permits increased primitive hematopoietic cell compartment expansion after niche activation by parathyroid hormone (PTH): OPN^+/+ and OPN^−/− mice were treated with PTH by daily injection for 4 weeks. The bone marrow was analyzed by flow cytometry.
Parathyroid hormone is capable of activating niche osteoblasts and expanding the number of stem cells in vitro and in vivo in a Notch mediated manner. […] Stimulation with PTH increases OPN production leading to the hypothesis that the degree of stem cell expansion possible by PTH niche activation may be restricted by OPN. Using the OPN null or wild type mouse, the number of primitive cells was assessed following four weeks of PTH stimulation. A difference in the number of Sca1^+c-kit^+lin^− was noted between the OPN null and wild type mouse prior to PTH (FIG. 6). With PTH treatment, there was an increase in the Sca1^+c-kit^+lin^− cells in each genotypic background.
6-8 week old wild-type or null male mice were injected with rat PTH (1-34) (Bachem, Torrance, Calif.) (80 μg/Kg of body weight) or vehicle alone intraperitoneally 5×/week for 4 weeks (n=4-6/group). Animals were sacrificed and bone marrow cell isolated and analyzed as above.
Flow cytometry was used to quantify the hematopoietic cells at different stages in the peripheral blood and the bone marrow of the transplanted animals. Bone marrow nucleated cells were labeled with the leukocyte antibodies Ly5.1-PE and Ly5.2-biotin (Pharmingen, San Diego, Calif.), lineage antibodies (CD3-PerCP, CD4-PE, B220-PE, Ter119-PE, (Pharmingen, San Diego, Calif.), CD8-Tri, Gr-1-Tri, Mac1-PE (Caltag)), and stem cell markers (Sca1-Tri and PE, c-kit-Tri (Caltag, Burlingame, Calif.)). To quantify the enriched stem cell phenotype (Sca1^+lin^−) in primary animals and in transplanted animals bone marrow cells were stained with biotinylated lineage antibodies (CD3, Ter119 (Pharmingen, San Diego, Calif.), CD4, CD8, B220, IgM, Gr-1 and Mac1 (Caltag, Burlingame, Calif.)), c-kit-APC (Pharmingen, San Diego, Calif.) and Sca1-PE (Caltag, Burlingame, Calif.). The cells were analyzed after labeling with the secondary antibody Streptavidin-PerCP (Becton Dickinson, Franklin Lakes, N.J.). For cell cycle analyses bone marrow cells were incubated with stem cell markers and the DNA dye Hoechst33342. The proportion of apoptotic cells were measured by staining with AnnexinV (Caltag, Burlingame, Calif.) and the DNA-dye 7-AAD (Sigma, St. Louis, Mo.).

The text below walks through data of patent US20080305085A1, “Compositions And Methods For Stem Cell Expansion” (priority 2004, published 2008).

Consider “OPN: Osteopontin, a secreted, highly acidic glycoprotein; OPN protein was obtained from R&D Systems”, for which, in test [1], the “percentage of AnnexinV+7-AAD− cells in the lin− cell population” value was “higher percentage”. For the same substance, the “absolute number of LTC-ICs” value in test [2] is 16.41±4.5 LTC-ICs/well. Besides, in test [3], the total cell number result was “lower”. The “Jagged1 expression (RT-PCR, normalized to GAPDH)” value in the test with Jagged1 was “statistically significantly reduced”. For the same substance, the “absolute number of CFCs” value in test [4] was “unperturbed”.
Regarding “PTH: rat PTH (1-34) (Bachem), parathyroid hormone used to activate niche osteoblasts (AVSEIQLMHNLGKHLASVERMQWLRKKLQDVHNF; Parathyroid hormone; UniProt P04089 32-65, looked up, fragment)”, the “Sca1+c-kit+lin− cells after PTH treatment” value in the test on Sca1+c-kit+lin− cells (OPN null and wild type mice, 80 μg/Kg i.p. 5×/week for 4 weeks) is listed as “increase”. Moreover, in the test with Sca1+c-kit+lin− cells (OPN null mice), the “magnitude of Sca1+c-kit+lin− increase induced by PTH, absolute number” value is 5.94×10^4 stem cells per femur pair and the “magnitude of Sca1+c-kit+lin− increase induced by PTH, proportion” value amounted to 10.0%. Besides, in the test with Sca1+c-kit+lin− cells (wild type mice), the “magnitude of Sca1+c-kit+lin− increase induced by PTH, absolute number” value is 3.82×10^4 stem cells per femur pair and the “magnitude of Sca1+c-kit+lin− increase induced by PTH, proportion” value is recorded as 7.5%.
